These results are taken from patent US5550110A, “Endothelin Antagonists II” (Warner-Lambert Company, priority 1994, dated 1996).

Ends that are not written are not given here. Peptide text beside a SMILES is read from it.

For data set [1], the system named is acute hypoxia induced pulmonary hypertension. Particulars: in vivo; cited from earlier work.
The test system of data set [2] is renal vascular resistance. The following applies: i.v.; cited from earlier work.
In data set [3] the test system is ischemic acute renal failure. Particulars: i.v., cited from earlier work.
For data set [4], the system named is ET-1 induced bronchoconstriction and tracheal smooth muscle contraction. Particulars: allergic sheep; cited from earlier work.
Data set [5] relates to ET-1 induced vasoconstriction. Particulars: i.v.; cited from earlier work.
For data set [6], the system named is blood pressure. The following applies: intravenous infusion, stroke prone spontaneous hypertensive rats; cited from earlier work.
For data set [7], the system named is acute CsA toxicity. The following applies: rat model; cited from earlier work.
The subject of data set [8] is endotoxic shock. The following applies: mouse endotoxic shock; cited from earlier work.
In data set [9] the test system is ET-1 induced pressor response. The following applies: conscious rats; cited from earlier work.
Data set [10] has as its system CaCO-2 cells (human colon adenocarcinoma cell line). It counts as in vitro ADME. As for the experimental part:
For experiments, the cells were counted, then diluted to 2.5×10^5 cells/mL for planting (400 μL per well) onto Snapwell culture membranes with 2.5 mL media in the lower chamber. Media in the […] was changed every 2 to 3 days. Cells used for this series of experiments were between passage 38 and 91. 2-[N-Morpholino]ethanesulfonic acid (MES)+25 mM glucose was used as incubation buffer for all the experiments and all incubation solutions were prepared to an osmotic pressure of 280 to 300 milliosmoles. The concentration of the endothelin antagonist being studied (for all experiments) was 100 μM and another endothelin antagonist with similar HPLC characteristics (retention time 2-3 minutes from the ET antagonist being studied, and similar chemical characteristics) was used at a concentration of 25 μM as an internal standard to compensate for any injection error. Prior to the start of the experiment, the transepithelial electrical resistance (TEER) was measured for each Snapwell (in media) at three points of the membrane. […] The membranes were washed by swirling in 0.9% normal saline and mounted in the pretreated diffusion chambers [0.1 mg/mL human serum albumin for 1 to 2 hours at 37° C. with O2 bubbling followed by air drying at 37° C. overnight, then with 4.5 to 5.0 mL dosing solution (MES+glucose+^14 C-PEG-4000 (5000 dpm/50 μL)+drug) for 5 minutes and 4.5 to 5.0 mL MES+glucose rinse just before the experiment.] The apical (donor) side was filled with 4.5 to 5.0 mL dosing solution, the basolateral (receiver) side with MES+glucose. Samples were removed from the donor and receiver compartments over the course of the experiment and analyzed for ^14 C-PEG 4000 (cell membrane integrity) and endothelin content.

For data set [11], the system named is endothelin receptor (ETA), rabbit renal artery vascular smooth muscle cells. In words: Endothelin Receptor Binding Assay-A (ERBA-A), intact cell binding of [125I]-ET-1. The following applies: [125I]-ET-1 25 pM. As for the experimental part: The compounds of Formula I are valuable antagonists of endothelin. […] Thus, the compounds of Formula I were tested for their ability to inhibit [^125 I]-ET-1([^125 I]-Endothelin-1) binding in a receptor assay according to the following procedures: Endothelin Receptor Binding Assay-A (ERBA-A) Intact Cell Binding of [^125 I]-ET-1 The cells used were rabbit renal artery vascular smooth muscle cells grown in a 48-well dish (1 cm^2) (confluent cells). The assay buffer was a medium 199 containing Hanks salts and 25 mM Hepes buffer (Gibco 380-2350AJ), supplemented with penicillin/streptomycin/fungizone (0.5%) and bovine serum albumin (1 mg/mL). Amersham radioiodinated endothelin-1 [^125 I]-ET-1 was used at final concentration of 20,000 cpm/0.25 mL (25 pM). […] Second, remove the assay buffers, place the dish on ice, and add 150 μL of cold assay buffer described above to each well. Third, add […] each of cold [^125 I]-ET-1 and competing ligand to the solution (at the same time if possible). Next, place dish in a 37° C. water bath for about 2 hours and gently agitate the dish every 15 minutes. Discard the radioactive incubation mixture in the sink and wash wells 3 times with 1 mL of cold phosphate buffered saline. Last, add […] of 0.25 molar sodium hydroxide, agitate for 1 hour on a rotator, and then transfer the sodium hydroxide extract to gamma counting tubes and count the radioactivity.

For data set [12], the target named is T1, endothelin receptor (ETB), rat cerebellar membranes (Rattus norvegicus, UniProt P21451).
T1 construct: thaw one aliquot of frozen rat cerebellar membranes (2 mg protein in 0.5 mL); from tissue; host or cells: rat cerebellum (membranes)
T1 sequence (P21451 27-442): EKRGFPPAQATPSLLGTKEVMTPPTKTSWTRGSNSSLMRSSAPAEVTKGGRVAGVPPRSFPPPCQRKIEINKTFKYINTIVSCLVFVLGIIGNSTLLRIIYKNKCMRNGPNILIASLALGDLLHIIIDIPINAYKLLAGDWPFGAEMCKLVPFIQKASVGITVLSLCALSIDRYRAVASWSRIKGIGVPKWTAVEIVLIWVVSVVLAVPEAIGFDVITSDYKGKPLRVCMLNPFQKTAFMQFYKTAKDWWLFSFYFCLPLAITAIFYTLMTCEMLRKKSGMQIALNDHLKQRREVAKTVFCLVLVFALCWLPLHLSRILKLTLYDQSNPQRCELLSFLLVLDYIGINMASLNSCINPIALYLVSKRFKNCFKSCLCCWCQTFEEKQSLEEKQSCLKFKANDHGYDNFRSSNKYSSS
As to the kind of experiment: Endothelin Receptor Binding Assay-B (ERBA-B), [125I]-ET-1 binding in rat cerebellar membranes. Particulars: [125I]-ET-1 25 pM, read-out: ERRA-B IC50. As for the experimental part:
Endothelin Receptor Binding Assay-B (ERBA-B) [^125 I]-ET-1 Binding in Rat Cerebellar Membranes
The tissue is made up of 20 mM tris(hydroxymethyl)aminomethane hydrochloride (Trizma) buffer, 2 mM ethylenediaminetetra acetate, 100 μM phenylmethylsulfonyl fluoride.
First, thaw one aliquot of frozen rat cerebellar membranes (2 mg protein in 0.5 mL). Next, add 0.5 mL membrane aliquot to 4.5 mL cold tissue buffer, polytron at 7,500 revolutions per minute for 10 seconds. Finally, dilute tissue suspension 1/100 (0.1 mL suspension+9.9 mL tissue buffer), polytron again, and place ice.
Medium 199 with Hank's salts plus 25 mM Hepes+1 mg/mL bovine serum albumin.
Amersham [^125 I]-ET-1 (aliquots of 2×10^6 cpm per […] aliquot of [^125 I]-ET-1 with 5.2 mL dilution buffer, place on ice until use (final concentration will be 20,000 cpm per tube, or 25 pM).
Add 50 μL each of cold [^125 ]-ET-1 and competing ligand to tubes on ice. Mix in 150 μL of tissue to each tube, vortex briefly, then tap to force all liquids to bottom (total assay volume=250 μL). Then place the tubes in a 37° C. water bath for 2 hours.
Add 2.5 mL cold wash buffer (50 mM Trizma buffer) to each tube, filter, and then wash tube with additional 2.5 mL wash buffer and add to filter. Finally, wash filters with an additional 2.5 mL of cold wash buffer.
Count filters for radioactivity in gamma counter.

The test system of data set [13] is blood pressure. Particulars: orally administered; cited from earlier work.
Data set [14] concerns renal vasoconstriction after renal ischemia. The following applies: anesthetized rats; cited from earlier work.
Data set [15] has as its system cerebral vasoconstriction after subarachnoid hemorrhage. The following applies: rats; cited from earlier work.
Data set [16] concerns vasoconstriction after subarachnoid hemorrhage. The following applies: cited from earlier work.
The subject of data set [17] is ET receptor. The following applies: cited from earlier work.
Data set [18] has as its system vasoconstriction of the basilar artery. The following applies: intracisternal, canine subarachnoid hemorrhage model; cited from earlier work.
The subject of data set [19] is glomerular injury. Particulars: intraperitoneal, rats; cited from earlier work.
The subject of data set [20] is ET-1 induced arrhythmia. The following applies: rats; cited from earlier work.

With `CC(C)C[C@@H]1NC(=O)[C@@H](C(C)C)NC(=O)[C@@H]2CCCN2C(=O)[C@@H](CC(=O)O)NC(=O)[C@@H](Cc2c[nH]c3ccccc23)NC1=O` [BQ-123] (HELM PEPTIDE1{L.[dW].[dD].P.[dV]}$PEPTIDE1,PEPTIDE1,1:R1-5:R2$$$V2.0), in data set [1], the “prevention of acute hypoxia induced pulmonary hypertension” value is listed as “effective in the prevention of acute hypoxia induced pulmonary hypertension”. Moreover, the “ET-1 induced renal vascular resistance in rats” value in data set [2] is “blocked”. Moreover, in [3] (early phase of ischemic acute renal failure in rats), the “mitochondrial [Ca2+] accumulation” value is “prevents the mitochondrial [Ca^2+ ] accumulation”. In addition, the “post-ischemic degeneration of proximal tubular cells” value in data set [3] (rats) is “protects proximal tubular cells from post-ischemic degeneration”. In data set [4], the “ET-1 induced bronchoconstriction and tracheal smooth muscle contraction” value was “block ET-1 induced bronchoconstriction and tracheal smooth muscle contraction”. In addition, the “ET-1 induced vasoconstriction in rabbit retinal arteries” value in [5] was “blocked”. Also, the blood pressure entry in data set [6] was “decreased blood pressure significantly”. The “acute CsA toxicity” value in [7] was “suppressed”. In addition, in data set [8], the survival rate result was “significantly increased the survival rate”. Further, the “ET-1 induced pressor response” value in data set [9] is reported as “effective in antagonizing the ET-1 induced pressor response”.
The IC50 is the concentration that inhibits the measured activity by half. As to `CC[C@H](C)[C@H](NC(=O)[C@@H](NC(=O)[C@@H](CC(=O)O)NC(=O)[C@H](CC(C)C)NC(=O)[C@H](NC(C)=O)C1c2ccccc2CCc2ccccc21)[C@@H](C)CC)C(=O)N[C@@H](Cc1c[nH]c2ccccc12)C(=O)O` [Example 16, Ac-D-Bhg-Leu-D-Asp-Ile-Ile-Trp] (HELM PEPTIDE1{[ac].[O=C([C@H](N[*:1])C1c2ccccc2CCc2ccccc21)[*:2]].L.[dD].I.I.W}$$$$V2.0), in data set [10], the “absorption in the gut suggested by CaCO-2 values” is listed as 5-10%. Further, the IC50 worked out at 140 nM in data set [11] and 400 nM in data set [12].
Turning to `COc1cccc(Oc2c(NS(=O)(=O)c3ccc(C(C)(C)C)cc3)ncnc2OCCO)c1` [Ro 46-2005], in data set [13], the antihypertensive effect result is “marked antihypertensive effect with a reasonably long duration”. Besides, in data set [14], the “renal vasoconstriction after renal ischemia” value is listed as “protective effect”. In addition, the “cerebral vasoconstriction after subarachnoid hemorrhage” value in data set [15] is given as “dramatically reduced cerebral vasoconstriction”.
`COc1ccccc1Oc1c(NS(=O)(=O)c2ccc(C(C)(C)C)cc2)nc(-c2ncccn2)nc1OCCO` [Ro 47-0203]: in data set [16] (inferred from the rabbit subarachnoid hemorrhage model), the “blood brain barrier passage” value was “crosses the blood brain barrier”. In addition, the reversal of vasoconstriction entry in [16] (rabbit subarachnoid hemorrhage model) is recorded as “effective in a rabbit subarachnoid hemorrhage model in reversing vasoconstriction”.
Take “ET[1-20]: ET-1 lacking the C-terminal amino acid Trp-21 (CSCSSLMDKECVYFCHLDII; ends and bridges not checked; cysteine pairing not given here; UniProt P05305 53-72, looked up, fragment)”: the “functional activity relative to ET-1” value in [17] is given as “approximately 1000 fold less”.
Regarding FR 139317, in data set [18], the “vasoconstriction of the basilar artery” value was “significantly reduced the vasoconstriction of the basilar artery”. Also, in [19], the “permeability to proteins, glomerular injury, renal function” value is “reduced abnormal permeability to proteins and limited glomerular injury and prevented renal function deterioration”. In addition, the ET-1 induced arrhythmia entry in data set [20] is “suppressed”.
